According to patent US8697700B2, “Piperazinone-substituted tetrahydro-carboline MCH-1 antagonists, methods of making, and uses thereof” (Albany Molecular Research, Inc., priority 2010, dated 2014):
Counter-ions that a name gives are not always drawn.

Assays:
human MCH-1 receptor = target: T1, human MCH-1 receptor (Homo sapiens, UniProt Q99705); test: Binding assay for human MCH-1 receptor (radioligand displacement); conditions: membranes from CHO-K1 cells expressing human MCH-1 receptor; 1.4 nM [3H]-labeled compound; 60 min at 25° C.; Ki from Cheng Prusoff equation; read-out: MCH1 Ki
T1 construct: purchased Euroscreen Batch 1138
Method: Evaluation of the affinity of compounds for the human MCH-1 receptor was accomplished using 4-(3,4,5-tritritiumbenzyloxy)-1-(1-(2-(pyrrolidin-1-yl)ethyl)-1H-indazol-5-yl)pyridin-2(1H)-one and membranes prepared from stable CHO-K1 cells expressing the human MCH-1 receptor obtained from Euroscreen (Batch 1138). Cell membrane homogenates (8.92 μg protein) were incubated for 60 min at 25° C. with 1.4 nM of the [^3H]-labeled compound in the absence or presence of the test compound in 50 mM Tris-HCl buffer, pH 7.4. Nonspecific binding was determined in the presence of 50 μM 1-(5-(4-cyanophenyl)bicyclo[3.1.0]hexan-2-yl)-3-(4-fluoro-3-(trifluoromethyl)phenyl)-1-(3-(4-methylpiperazin-1-yl)propyl)urea. Following incubation, the samples were filtered rapidly under vacuum through Skatron 11731 filters, pre-soaked in 0.5% polyethylenimine, and washed with ice-cold 50 mM Tris-HCl buffer, pH 7.4, (wash setting 9,9,0) using a Skatron cell harvester. The filters were counted for radioactivity in a liquid scintillation counter (Tri-Carb 2100TR, Packard) using a scintillation cocktail (Ultima Gold MV, Perkin Elmer).
The results are expressed as a percent inhibition of the control radioligand specific binding. The IC50 value (concentration causing a half-maximal inhibition of control specific binding) and Hill coefficient (nH) were determined by non-linear regression analysis of the competition curve using Hill equation curve fitting. The inhibition constant (Ki) was calculated from the Cheng Prusoff equation: (Ki=IC50/(1+(L/KD)), where L=concentration of radioligand in the assay, and KD=affinity of the radioligand for the receptor.

T1 sequence (Q99705 whole entry): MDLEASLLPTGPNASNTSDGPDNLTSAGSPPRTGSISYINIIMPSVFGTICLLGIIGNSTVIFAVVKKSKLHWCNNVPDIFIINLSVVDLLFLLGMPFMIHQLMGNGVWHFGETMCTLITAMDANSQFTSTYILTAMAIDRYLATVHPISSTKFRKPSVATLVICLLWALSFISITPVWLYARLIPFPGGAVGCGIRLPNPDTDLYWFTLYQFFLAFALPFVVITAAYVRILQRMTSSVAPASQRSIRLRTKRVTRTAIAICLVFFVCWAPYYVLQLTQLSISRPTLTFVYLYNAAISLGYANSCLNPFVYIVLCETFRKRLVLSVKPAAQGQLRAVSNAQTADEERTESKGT

| Structure (SMILES) | Ki (human MCH-1 receptor) [nM] | melting point [°C] |
| --- | --- | --- |
| Cn1c2c(c3ccc(N4CCN(CCc5ccccn5)CC4=O)cc31)CCNC2 [Example 3, 1-(9-Methyl-2,3,4,9-tetrahydro-1H-pyrido[3,4-b]indol-7-yl)-4-(2-(pyridin-2-yl)ethyl)piperazin-2-one dihydrochloride] | 43 |  |
| CN1CCc2c(c3ccc(N4CCN(CCc5ccccc5)CC4=O)cc3n2C)C1 [Example 7, 1-(2,5-Dimethyl-2,3,4,5-tetrahydro-1H-pyrido[4,3-b]indol-7-yl)-4-phenethylpiperazin-2-one hydrochloride] | 12 |  |
| Cn1c2c(c3ccc(N4CCN(CCc5ccc(F)cc5)CC4=O)cc31)C(C)(C)NCC2 [Example 16, 4-(4-Fluorophenethyl)-1-(1,1,5-trimethyl-2,3,4,5-tetrahydro-1H-pyrido[4,3-b]indol-7-yl)piperazin-2-one dihydrochloride] | 17 |  |
| Cn1c2c(c3ccc(N4CCN(CCc5ccccc5)CC4=O)cc31)CNCC2 [Example 6, 1-(5-Methyl-2,3,4,5-tetrahydro-1H-pyrido[4,3-b]indol-7-yl)-4-phenethylpiperazin-2-one dihydrochloride] | 11 |  |
| Cn1c2c(c3ccc(N4CCN(c5ccc(C(F)(F)F)cn5)CC4=O)cc31)CNCC2 [Example 5, 1-(5-Methyl-2,3,4,5-tetrahydro-1H-pyrido[4,3-b]indol-7-yl)-4-(5-(trifluoromethyl)pyridin-2-yl)piperazin-2-one dihydrochloride] | 534 |  |
| Cn1c2c(c3ccc(N4CCN(CCc5ccccn5)CC4=O)cc31)CNCC2 [Example 8, 1-(5-Methyl-2,3,4,5-tetrahydro-1H-pyrido[4,3-b]indol-7-yl)-4-(2-(pyridin-2-yl)ethyl)piperazin-2-one dihydrochloride] | 123 |  |
| CN1CCc2c(n(C)c3cc(N4CCN(CCc5ccccc5)CC4=O)ccc23)C1 [Example 4, 1-(2,9-Dimethyl-2,3,4,9-tetrahydro-1H-pyrido[3,4-b]indol-7-yl)-4-phenethylpiperazin-2-one dihydrochloride] | 21 |  |
| CC(=O)N1Cc2c(n(C)c3cc(N4CCN(CCc5ccc(Cl)cc5)CC4=O)ccc23)CC1C (single isomer, unassigned; enantiomer a) [Example 18, 1-(2-Acetyl-3,5-dimethyl-2,3,4,5-tetrahydro-1H-pyrido[4,3-b]indol-7-yl)-4-(4-chlorophenethyl)piperazin-2-one (Enantiomer A)] | 49 |  |
| Cn1c2c(c3ccc(N4CCN(CCc5ccccc5)CC4=O)cc31)CCNC2 [Example 2, 1-(9-Methyl-2,3,4,9-tetrahydro-1H-pyrido[3,4-b]indol-7-yl)-4-phenethylpiperazin-2-one hydrochloride] | 26 |  |
| CC(=O)N1CCc2c(c3ccc(N4CCN(CCc5ccccc5)CC4=O)cc3n2C)C1 [Example 10, 1-(2-Acetyl-5-methyl-2,3,4,5-tetrahydro-1H-pyrido[4,3-b]indol-7-yl)-4-phenethylpiperazin-2-one] | 57 |  |
| O=C1CN(CCc2ccccc2)CCN1c1ccc2c3c([nH]c2c1)CCNC3 [Example 9, 4-Phenethyl-1-(2,3,4,5-tetrahydro-1H-pyrido[4,3-b]indol-7-yl)piperazin-2-one dihydrochloride] | 17 |  |

Further molecules by falling Ki (human MCH-1 receptor), results first:

| Ki (human MCH-1 receptor) [nM] | melting point [°C] | Structure (SMILES) |
| --- | --- | --- |
| 11 | 295 to 300 | CC1Cc2c(c3ccc(N4CCN(CCc5ccc(F)cc5)CC4=O)cc3n2C)CN1.Cl (single isomer, unassigned; enantiomer a) [Example 15, 1-(3,5-Dimethyl-2,3,4,5-tetrahydro-1H-pyrido[4,3-b]indol-7-yl)-4-(4-fluorophenethyl)piperazin-2-one hydrochloride (Enantiomer A)] |
| 9.7 | 280 to 285 | CC1Cc2c(c3ccc(N4CCN(CCc5ccc(F)cc5)CC4=O)cc3n2C)CN1.Cl (centres unmarked) [Example 12, 1-(3,5-Dimethyl-2,3,4,5-tetrahydro-1H-pyrido[4,3-b]indol-7-yl)-4-(4-fluorophenethyl)piperazin-2-one hydrochloride] |
| 7.6 |  | CC1Cc2c(c3ccc(N4CCN(CCc5ccc(Cl)cc5)CC4=O)cc3n2C)CN1 (single isomer, unassigned; enantiomer a) [Example 17, 4-(4-Chlorophenethyl)-1-(3,5-dimethyl-2,3,4,5-tetrahydro-1H-pyrido[4,3-b]indol-7-yl)piperazin-2-one hydrochloride (Enantiomer A)] |
| 7 |  | Cn1c2c(c3ccc(N4CCN(CCc5ccc(F)cc5)CC4=O)cc31)CNCC2 [Example 11, 4-(4-Fluorophenethyl)-1-(5-methyl-2,3,4,5-tetrahydro-1H-pyrido[4,3-b]indol-7-yl)piperazin-2-one dihydrochloride] |
| 5.8 |  | Cn1c2c(c3ccc(N4CCN(CCc5ccc(Cl)cc5)CC4=O)cc31)CNCC2 [Example 14, 4-(4-Chlorophenethyl)-1-(5-methyl-2,3,4,5-tetrahydro-1H-pyrido[4,3-b]indol-7-yl)piperazin-2-one dihydrochloride] |
| 5.3 | 294 to 300 | CC1Cc2c(c3ccc(N4CCN(CCc5ccc(Cl)cc5)CC4=O)cc3n2C)CN1.Cl (centres unmarked) [Example 13, 4-(4-Chlorophenethyl)-1-(3,5-dimethyl-2,3,4,5-tetrahydro-1H-pyrido[4,3-b]indol-7-yl)piperazin-2-one hydrochloride] |
